Results from ChEMBL document CHEMBL1201862, “PubChem BioAssay data set” (2004).
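48-hour exposure; five concentrations; linearly interpolated endpoints. GI50: concentration for 50% inhibition of growth.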 The source made the active and inactive calls. No stated cut-off is given here; in the data, active = GI50 up to about 1.1 µM and inactive = higher.

What was measured:
Assay in all cases: growth of human tumour cells (NCI), 48 h
HOP-92 = test system: HOP-92
BT-549 = test system: BT-549
KM12 = test system: KM12
UACC-62 = test system: UACC-62
Hs-578T = test system: Hs-578T
ACHN = test system: ACHN
Malme-3M = test system: Malme-3M
HT-29 = test system: HT-29
LOX IMVI = test system: LOX IMVI
HCT-116 = test system: HCT-116
SR = test system: SR
HL-60 = test system: HL-60
T47D = test system: T47D
SK-OV-3 = test system: SK-OV-3
NCI-H522 = test system: NCI-H522
SF-539 = test system: SF-539
SK-MEL-2 = test system: SK-MEL-2
OVCAR-5 = test system: OVCAR-5
SNB-19 = test system: SNB-19
OVCAR-8 = test system: OVCAR-8
SN12C = test system: SN12C
DU-145 = test system: DU-145
RPMI-8226 = test system: RPMI-8226
A498 = test system: A498
HCT-15 = test system: HCT-15
OVCAR-4 = test system: OVCAR-4
A549 = test system: A549
M14 = test system: M14
SF-268 = test system: SF-268
TK-10 = test system: TK-10
MDA-N = test system: MDA-N
MDA-MB-231 = test system: MDA-MB-231
PC-3 = test system: PC-3
IGROV-1 = test system: IGROV-1
SK-MEL-5 = test system: SK-MEL-5
EKVX = test system: EKVX
NCI/ADR-RES = test system: NCI/ADR-RES
CCRF-CEM = test system: CCRF-CEM
CAKI-1 = test system: CAKI-1
MCF7 = test system: MCF7
K562 = test system: K562
MOLT-4 = test system: MOLT-4
NCI-H226 = test system: NCI-H226
RXF 393 = test system: RXF 393
HOP-62 = test system: HOP-62
U-251 = test system: U-251
NCI-H23 = test system: NCI-H23
UACC-257 = test system: UACC-257
MDA-MB-435 = test system: MDA-MB-435
SW-620 = test system: SW-620
COLO 205 = test system: COLO 205
UO-31 = test system: UO-31
SK-MEL-28 = test system: SK-MEL-28
SNB-75 = test system: SNB-75
OVCAR-3 = test system: OVCAR-3
786-0 = test system: 786-0
NCI-H460 = test system: NCI-H460
SF-295 = test system: SF-295
HCC 2998 = test system: HCC 2998

O=C(O)C1CCCN1Cc1c[nH]c2ccccc12 (stereo unspecified)
GI50 (HOP-92): > 100 µM (inactive)
GI50 (BT-549): > 100 µM (inactive)
GI50 (KM12): > 100 µM (inactive)
GI50 (UACC-62): > 100 µM (inactive)
GI50 (Hs-578T): > 100 µM (inactive)
GI50 (ACHN): > 100 µM (inactive)
GI50 (Malme-3M): > 100 µM (inactive)
GI50 (HT-29): > 100 µM (inactive)
GI50 (LOX IMVI): > 100 µM (inactive)
GI50 (HCT-116): > 100 µM (inactive)
GI50 (SR): > 100 µM (inactive)
GI50 (HL-60): > 100 µM (inactive)
GI50 (T47D): > 100 µM (inactive)
GI50 (SK-OV-3): > 100 µM (inactive)
GI50 (NCI-H522): > 100 µM (inactive)
GI50 (SF-539): > 100 µM (inactive)
GI50 (SK-MEL-2): > 100 µM (inactive)
GI50 (OVCAR-5): > 100 µM (inactive)
GI50 (SNB-19): > 100 µM (inactive)
GI50 (OVCAR-8): > 100 µM (inactive)
GI50 (SN12C): > 100 µM (inactive)
GI50 (DU-145): > 100 µM (inactive)
GI50 (RPMI-8226): > 100 µM (inactive)
GI50 (A498): > 100 µM (inactive)
GI50 (HCT-15): > 100 µM
GI50 (OVCAR-4): > 100 µM (inactive)
GI50 (A549): > 100 µM (inactive)
GI50 (M14): > 100 µM (inactive)
GI50 (SF-268): > 100 µM (inactive)
GI50 (TK-10): > 100 µM (inactive)
GI50 (MDA-N): > 100 µM (inactive)
GI50 (MDA-MB-231): > 100 µM (inactive)
GI50 (PC-3): > 100 µM (inactive)
GI50 (IGROV-1): > 100 µM (inactive)
GI50 (SK-MEL-5): > 100 µM (inactive)
GI50 (EKVX): > 100 µM (inactive)
GI50 (NCI/ADR-RES): > 100 µM (inactive)
GI50 (CCRF-CEM): > 100 µM (inactive)
GI50 (CAKI-1): > 100 µM (inactive)
GI50 (MCF7): > 100 µM (inactive)
GI50 (K562): > 100 µM (inactive)
GI50 (MOLT-4): > 100 µM (inactive)
GI50 (NCI-H226): > 100 µM (inactive)
GI50 (RXF 393): > 100 µM (inactive)
GI50 (HOP-62): > 100 µM (inactive)
GI50 (U-251): > 100 µM (inactive)
GI50 (NCI-H23): > 100 µM (inactive)
GI50 (UACC-257): > 100 µM (inactive)
GI50 (MDA-MB-435): > 100 µM (inactive)
GI50 (SW-620): > 100 µM (inactive)
GI50 (COLO 205): > 100 µM (inactive)
GI50 (UO-31): > 100 µM (inactive)
GI50 (SK-MEL-28): > 100 µM (inactive)
GI50 (SNB-75): > 100 µM (inactive)
GI50 (OVCAR-3): > 100 µM (inactive)
GI50 (786-0): > 100 µM (inactive)
GI50 (NCI-H460): > 100 µM (inactive)
GI50 (SF-295): > 100 µM (inactive)

O=C(N(O)c1ccccc1Cl)C(O)(c1ccccc1)c1ccccc1
GI50 (HOP-92): 26.1 µM (inactive)
GI50 (BT-549): 60.1 µM (inactive)
GI50 (KM12): 36.1 µM (inactive)
GI50 (UACC-62): 45.8 µM (inactive)
GI50 (Hs-578T): 42.5 µM (inactive)
GI50 (ACHN): 52.8 µM (inactive)
GI50 (Malme-3M): > 100 µM (inactive)
GI50 (HT-29): 85.7 µM (inactive)
GI50 (LOX IMVI): 49.3 µM (inactive)
GI50 (HCT-116): > 100 µM (inactive)
GI50 (SR): 18.1 µM (inactive)
GI50 (HL-60): 22.6 µM (inactive)
GI50 (T47D): 47 µM (inactive)
GI50 (SK-OV-3): > 100 µM (inactive)
GI50 (NCI-H522): 33 µM (inactive)
GI50 (SF-539): > 100 µM (inactive)
GI50 (SK-MEL-2): > 100 µM (inactive)
GI50 (OVCAR-5): 82 µM (inactive)
GI50 (SNB-19): > 100 µM (inactive)
GI50 (OVCAR-8): 76.2 µM (inactive)
GI50 (SN12C): > 100 µM (inactive)
GI50 (DU-145): 59.8 µM (inactive)
GI50 (RPMI-8226): 23.8 µM (inactive)
GI50 (A498): > 100 µM (inactive)
GI50 (HCT-15): 39.3 µM
GI50 (OVCAR-4): > 100 µM (inactive)
GI50 (A549): 71.1 µM (inactive)
GI50 (M14): 54.1 µM (inactive)
GI50 (SF-268): > 100 µM (inactive)
GI50 (TK-10): 62.4 µM (inactive)
GI50 (MDA-N): 67.1 µM (inactive)
GI50 (MDA-MB-231): > 100 µM (inactive)
GI50 (PC-3): 91.6 µM (inactive)
GI50 (IGROV-1): 78.9 µM (inactive)
GI50 (SK-MEL-5): 50.6 µM (inactive)
GI50 (EKVX): > 100 µM (inactive)
GI50 (HCC 2998): 35.4 µM (inactive)
GI50 (NCI/ADR-RES): 63.8 µM (inactive)
GI50 (CCRF-CEM): 15.4 µM (inactive)
GI50 (CAKI-1): 30.2 µM (inactive)
GI50 (MCF7): 56.8 µM (inactive)
GI50 (K562): 24.4 µM (inactive)
GI50 (MOLT-4): 30.8 µM (inactive)
GI50 (NCI-H226): > 100 µM (inactive)
GI50 (RXF 393): 51.2 µM (inactive)
GI50 (HOP-62): > 100 µM (inactive)
GI50 (U-251): 40.6 µM (inactive)
GI50 (NCI-H23): > 100 µM (inactive)
GI50 (UACC-257): > 100 µM (inactive)
GI50 (MDA-MB-435): 65.2 µM (inactive)
GI50 (SW-620): 42.7 µM (inactive)
GI50 (COLO 205): > 100 µM (inactive)
GI50 (UO-31): 20.6 µM (inactive)
GI50 (SK-MEL-28): 93.3 µM (inactive)
GI50 (OVCAR-3): 43.5 µM (inactive)
GI50 (786-0): 31.3 µM (inactive)
GI50 (NCI-H460): > 100 µM (inactive)
GI50 (SF-295): 30.4 µM (inactive)
